Assay results from PubChem BioAssay (NCI).
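Grown in 96-well plates, cells were treated for 48 hours with each compound at five concentrations. Insufficient inhibition: endpoint recorded as highest concentration tested. TGI is the concentration that stops growth completely.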

Key:
Assay in all cases: DTP human tumour cell line panel, 48 h
[1] = system: DU-145 prostate
[2] = system: NCI-H460 lung
[3] = system: T-47D breast
[4] = system: SF-295 CNS
[5] = system: A498 renal
[6] = system: PC-3 prostate
[7] = system: HOP-92 NSCLC
[8] = system: A549 NSCLC
[9] = system: HCT-15 colon
[10] = system: OVCAR-3 ovarian
[11] = system: 786-0 renal
[12] = system: HCC-2998 colon
[13] = system: KM12 colon
[14] = system: NCI/ADR-RES ovarian
[15] = system: K-562 leukemia
[16] = system: COLO 205 colon
[17] = system: OVCAR-4 ovarian
[18] = system: TK-10 renal
[19] = system: HCT-116 colon
[20] = system: IGROV1 ovarian
[21] = system: RXF 393 renal
[22] = system: SNB-75 CNS
[23] = system: UACC-257 melanoma
[24] = system: MOLT-4 leukemia
[25] = system: M14 melanoma
[26] = system: OVCAR-8 ovarian
[27] = system: CAKI-1 renal
[28] = system: HS 578T breast
[29] = system: MALME-3M melanoma
[30] = system: MCF7 breast
[31] = system: UACC-62 melanoma
[32] = system: NCI-H23 lung
[33] = system: SK-MEL-28 melanoma
[34] = system: HOP-62 NSCLC
[35] = system: MDA-N
[36] = system: BT-549 breast
[37] = system: SW-620 colon
[38] = system: OVCAR-5 ovarian
[39] = system: SK-MEL-2 melanoma
[40] = system: SK-OV-3 ovarian
[41] = system: EKVX NSCLC
[42] = system: UO-31 renal
[43] = system: U251 CNS
[44] = system: HT29 colon
[45] = system: MDA-MB-435
[46] = system: MDA-MB-231 breast
[47] = system: SNB-19 CNS
[48] = system: RPMI-8226 leukemia
[49] = system: ACHN renal
[50] = system: SK-MEL-5 melanoma
[51] = system: NCI-H522 lung
[52] = system: SF-268 CNS
[53] = system: SR leukemia
[54] = system: LOX IMVI melanoma
[55] = system: SN12C renal
[56] = system: NCI-H226 lung

Measured: TGI

CCON1CC(C(=O)OC)=C(O)C1=O
not listed: [53] | [54] | [55] | [56]
> 100 µM: all other assays above

CC(=O)OC1C(COC(=O)c2ccccc2)OC(Nc2ncc(-c3ccc(Br)cc3)s2)C(OC(=O)c2ccccc2)C1OC(=O)c1ccccc1 (configuration not stated)
35.3 µM: [39]
not listed: [5] | [9] | [12] | [13] | [14] | [27]
> 100 µM: all other assays above
